In data set [1] the test system is Na^+ /K^+ ATPase. The settings on record: cited from earlier work.
In data set [2] the test system is NCC (lysis of IM-9 target cells). In words: NCC cytotoxicity (51Cr release) after treatment with protein kinase inhibitors. It counts as cell-based, channel catfish (Ictalurus punctatus). The following applies: for Percentage specific release: media control 25.9%; for activation at 30 µM / activation at 60 µM: read-out: Percentage increase (vs media control). How it is done: To prepare NCC, fish were lightly anesthetized with ethyl m-aminobenzoate (Sigma Chemical Co.) in water and sacrificed.
IM-9 target cells were used in cytotoxicity assays. […] Cells were grown in stationary suspension cultures and were maintained at approximately 1×10^6 cells/ml. […]

The test system is the same in data set [3]. Nature of the data set: Costimulation assay: NCC cytotoxicity (51Cr release) with A23187 or mab 5C6. It counts as cell-based, channel catfish (Ictalurus punctatus). The following applies: for activity at 60 µM: Ictalurus punctatus, IM-9, 2 h, mabs 1:50 dilution, H-7, HA1004 60 μM, genistein 0.5 μg/ml. On the procedure:
Incubation was two hours and cells were either washed or not washed before addition to ^51 Cr-labeled IM-9 target cells (4- to 6-hour cytotoxicity assays).
To further investigate this inhibitory effect, a costimulus experiment was done using a calcium ionophore, e.g., A23187, combined with the various inhibitors and activators of NCC activity. Pretreatment of NCC with A23187 produced an almost identical increase in cytotoxicity regardless of the identity of the first treatment.
In a second costimulus experiment mab 5C6 was used (instead of A23187) to activate cytotoxicity (Table 6).

Data set [4] concerns NCC membrane proteins (tyrosine phosphorylation). In words: Tyrosine phosphorylation of NCC membrane proteins following mab 5C6 activation (Western blot). The format is cell-based, channel catfish (Ictalurus punctatus). The following applies: NCC pretreated two hours with inhibitor; 100 μg/ml genistein or 30 μM HA1004. On the procedure:
FIG. 1. Tyrosine phosphorylation of NCC membrane proteins following activation by mab 5C6. NCC were resuspended at 500×10^6 /ml and 200 μl aliquots were incubated at 37° C. with either 125 μl ammonium sulfate precipitate mab 5C6 (left panel) or an isotype control (right panel). At the indicated timed intervals, the reactions were terminated by addition of 325 μl of 2×lysis buffer. Lysates were immunoprecipitated with mab 4G10, electrophoresed on 11% SDS-PAGE, blotted onto nitrocellulose, and probed with mab 4G10. Molecular weight markers are indicated by the arrows.
FIG. 2. Tyrosine phosphorylation of Percoll-enriched NCC. Fish NCC were centrifuged for 15 minutes at 500 g on a 45.5% Percoll cushion. The cells at the interphase were harvested, washed, and treated with mab 5C6 for 0 and 20 sec before addition of 2×lysis buffer. Lysates were electrophoresed, blotted on nitrocellulose, and probed with mab 4G10.
FIG. 3. Effects of genistein on tyrosine phosphorylation in fish NCC. Fish NCC were incubated with media, genistein (100 μg/ml), or HA1004 (30 μM) for two hours prior to activation for zero time with mab 5C6 (left lane) and 40 sec with either mab 5C6 (middle lane) or an irrelevant IgM isotype control (right lane). Reactions were stopped by addition of lysis buffer and lysates were processed as explained in the legends to FIGS. 1 and 2. […]
Background: Immunoblotting shows a protein as a band on a membrane.

The subject of data set [5] is protein kinase C (PKC). The following applies: cited from earlier work.
In data set [6] the test system is cyclic nucleotide dependent kinases. The settings on record: cited from earlier work.

“Also recorded” adds a separate entry of the source. Where a name gives a salt, the structure may show the parent alone. Read-outs that look alike come from different tables or passages of the source.

For the compound `[O]=[V+2]` [vanadyl ion, vanadyl (IV) ion], the “Na^+ /K^+ ATPase inhibition” value in data set [1] is recorded as “little effect”.

As to `N=C(N)NCCNS(=O)(=O)c1cccc2cnccc12` [HA1004, N-(2-guanidoethyl)-5-isoquinolinesulfonamide di-HCl], the “effect of removal (washing) of inhibitor on cytotoxicity” value in data set [2] is recorded as “did not reduce the augmentation of cytotoxicity”. Moreover, the Percentage specific release in data set [2] (30 μM, 60 min) came to 38.7%; in data set [2] (30 μM, 120 min), 39.0%; in data set [2] (30 μM, 180 min/wash), 36.0%; in data set [2] (30 μM, 180 min), 35.9%; in data set [2] (60 μM, 60 min), 38.5%; in data set [2] (60 μM, 120 min), 36.9%. In addition, the Percentage specific release stood at 34.2% in data set [2] (60 μM, 180 min/wash); 36.5% in data set [2] (60 μM, 180 min); 33.2% in data set [3] (E:T 40:1, 10^-4 M A23187, 60 μM H7 and HA1004, 0.5 μg/ml genistein, 1:3 dilution of tissue culture supernatant, media control 20.6). For the same compound, the activation at 30 µM turned out to be 49.2% in data set [2] (Ictalurus punctatus, 1 h, 30 μM, 60 min); 50.2% in data set [2] (Ictalurus punctatus, 2 h, 30 μM, 120 min); 38.7% in data set [2] (Ictalurus punctatus, 3 h, 30 μM, 180 min/wash); 38.5% in data set [2] (Ictalurus punctatus, 3 h, 30 μM, 180 min). Also, the activation at 60 µM amounted to 48.3% in data set [2] (Ictalurus punctatus, 1 h, 60 μM, 60 min); 42.1% in data set [2] (Ictalurus punctatus, 2 h, 60 μM, 120 min); 31.8% in data set [2] (Ictalurus punctatus, 3 h, 60 μM, 180 min/wash); 40.6% in data set [2] (Ictalurus punctatus, 3 h, 60 μM, 180 min). The activity at 60 µM was 211% in data set [3] (4 × 10^6 NCC/ml, read-out: Percentage of control (E:T ratio) 40%) and 243% in data set [3] (read-out: Percentage of control (E:T ratio) 20%). Besides, in data set [3] (pretreatment prior to A23187, di-HCl), the “influence of pretreatment on A23187 activation” value is “did not appear to be additive and did not influence the final level of activation”. Moreover, in data set [4], the “specific protein phosphorylation after mab 5C6” value is reported as “did occur”. Moreover, the “effect on protein kinase C” value in data set [5] is given as “no effect on PKC”. Moreover, in data set [6], the “inhibition of cyclic nucleotide dependent kinases” value was “inhibits mostly cyclic nucleotide dependent kinases”.

In the case of `CNCCNS(=O)(=O)c1cccc2cnccc12.Cl.Cl` [H-8, N-(2-(methylamino)ethyl)-5-isoquinolinesulfonamide di-HCl], in data set [2], the “inhibition of NCC cytotoxicity” value was “time and dose dependent inhibition of NCC cytotoxicity”. In data set [2] (Ictalurus punctatus, 1.5 h, read-out: Percentage inhibition (NCC activity), 30 μM, 90 minutes, washed, E:T 80.1), the inhibition at 30 µM stood at 0%. The inhibition at 60 µM in data set [2] (Ictalurus punctatus, 1.5 h, read-out: Percentage inhibition (NCC activity), 60 μM, 90 minutes, washed, E:T 80.1) is 13.8%. Further, the inhibition at 150 µM in data set [2] (Ictalurus punctatus, 1.5 h, read-out: Percentage inhibition (NCC activity), 150 μM, 90 minutes, washed, E:T 80.1) came out at 36.9%. For the same compound, in data set [2] (Ictalurus punctatus, 1.5 h, read-out: Percentage inhibition (NCC activity), 300 μM, 90 minutes, washed, E:T 80.1), the inhibition at 300 µM was determined as 46.5%. In addition, in data set [2] (approximately 150 μM H-8, di-HCl), the “inhibition of NCC activity, comparison with H-7” value was “levels of inhibition comparable to that obtained with an approximately 30 μM concentration of H-7”. Also, the “effect on protein kinase C” value in data set [5] (di-HCl) was “almost no effect on PKC activity; also recorded: limited effect on PKC”. Also, the “inhibition of cyclic nucleotide dependent kinases” value in data set [6] is “more inhibitory of cyclic nucleotide dependent kinases”.

The inhibition is the drop in the measured response relative to a control, in per cent.
